Values after ≈ are worked out from the molar mass of the structure shown. Values joined by “and” are separate entries in the source; they are usually repeats but may differ in a detail not shown here. Equal values may be shown once.
How the values were obtained:
[1] = tested on: Vero; experiment: Antiviral activity against Coxsackie virus B3 growth by 50% in Vero cells; type: functional, cell-based, Chlorocebus sabaeus
[2] = tested on: Vero; experiment: Selectivity index (TC50/IC50) against Coxsackie virus B3 in Vero cells; type: functional, Chlorocebus sabaeus
[3] = tested on: Vero; experiment: Cytotoxic concentration required to inhibit Vero cell growth by 50%; type: functional, Chlorocebus sabaeus; conditions: for CC50: Chlorocebus sabaeus, Vero, read-out: TC50 (the source's name)
[4] = tested on: Vero; experiment: Antiviral activity against Coxsackie virus B3 growth by 50% in Vero cells:not active; type: functional, cell-based, Chlorocebus sabaeus
[5] = Chlorocebus sabaeus, Vero, read-out: IC50

SMILES | IC50 [1, 5] | SI [2] | CC50 [3] | IC50 [4] | IC50 ([1]; vero) | TC50 [3]
NC(=O)c1cccc2[nH]c(-c3cccnc3)nc12 | 6.2 µg/mL (≈ 26 µM) | 2.98 | 18.5 µg/mL (≈ 77.6 µM) | – | – | –
O=C(Nc1ccccc1)c1cccc2[nH]c(-c3cccnc3)nc12 | 1.17 µg/mL (≈ 3.72 µM) | 9.17 | 10.7 µg/mL (≈ 34.2 µM) | – | – | –
O=C(NCCO)c1cccc2[nH]c(-c3ccncc3)nc12 | – | – | 141 µg/mL (≈ 498 µM) | Not Active | – | –
O=C(Nc1cccc(Br)c1)c1cccc2[nH]c(-c3ccncc3)nc12 | 4.12 µg/mL (≈ 10.5 µM) | 2 | < 8.24 µg/mL | – | – | –
O=C(Nc1cccc(O)c1)c1cccc2[nH]c(-c3ccncc3)nc12 | – | – | < 5.9 µg/mL | Not Active | – | –
O=C(Nc1ccccc1F)c1cccc2[nH]c(-c3ccccn3)nc12 | 0.54 µg/mL (≈ 1.62 µM) | 28.3 | 15.3 µg/mL (≈ 46.1 µM) | – | – | –
NC(=O)c1cccc2[nH]c(-c3ccccn3)nc12 | 7.29 µg/mL (≈ 30.6 µM) | 7.32 | 53.4 µg/mL (≈ 224 µM) | – | – | –
O=C(NCCO)c1cccc2[nH]c(-c3cccnc3)nc12 | 25.6 µg/mL (≈ 90.6 µM) | 7.51 | 192 µg/mL (≈ 682 µM) | – | – | –
O=C(Nc1ccc([N+](=O)[O-])cc1)c1cccc2[nH]c(-c3ccncc3)nc12 | 18.5 µg/mL (≈ 51.5 µM) | 2.99 | < 55.5 µg/mL | – | – | –
O=C(Nc1ccccc1F)c1cccc2[nH]c(-c3ccncc3)nc12 | – | – | 12.3 µg/mL (≈ 37 µM) | Not Active | – | –
Cc1ccccc1NC(=O)c1cccc2[nH]c(-c3ccncc3)nc12 | 2.42 µg/mL (≈ 7.37 µM) | 11.48 and 4.81 | – | – | 2.23 µg/mL (≈ 6.79 µM) | <27.8 µg/mL and <10.74 µg/mL
NC(=O)c1ncn([C@@H]2O[C@H](CO)[C@@H](O)[C@H]2O)n1 [RIBAVIRIN] | 448 µg/mL (≈ 1830 µM) | >2.23 | > 1000 µg/mL | – | – | –
O=C(Nc1ccccc1O)c1cccc2[nH]c(-c3ccncc3)nc12 | 4.05 µg/mL (≈ 12.3 µM) | 4.56 | < 18.5 µg/mL | – | – | –
O=C(Nc1ccccc1)c1cccc2[nH]c(-c3ccccn3)nc12 | 1.43 µg/mL (≈ 4.55 µM) | 38.8 | 55.6 µg/mL (≈ 177 µM) | – | – | –
O=C(Nc1ccccc1)c1cccc2[nH]c(-c3ccncc3)nc12 | 3.85 µg/mL (≈ 12.2 µM) | 4.06 | 15.6 µg/mL (≈ 49.8 µM) | – | – | –
O=C(Nc1ccc(Cl)cc1)c1cccc2[nH]c(-c3ccncc3)nc12 | 8.72 µg/mL (≈ 25 µM) | 2.35 | < 20.9 µg/mL | – | – | –
O=C(Nc1ccccc1F)c1cccc2[nH]c(-c3cccnc3)nc12 | 3.23 µg/mL (≈ 9.72 µM) | 11.4 | 37 µg/mL (≈ 111 µM) | – | – | –
O=C(NCCO)c1cccc2[nH]c(-c3ccccn3)nc12 | 37 µg/mL (≈ 131 µM) | 4.32 | 160 µg/mL (≈ 567 µM) | – | – | –

— ChEMBL document CHEMBL1142825, “Synthesis and antiviral activity against Coxsackie virus B3 of some novel benzimidazole derivatives” (Bioorg Med Chem Lett, 2005)
